This note sets out measurements from patent US20150344426A1, “COMPOUNDS AND THERAPEUTIC USES THEREOF” (ALZHEIMER'S INSTITUTE OF AMERICA, INC., priority 2012, published 2015).

Series [1] can be described thus: Stability assessment / semi-quantitative hygroscopicity in a relative humidity (RH) chamber. The format is physicochemical. The following applies: solid in RH chamber; morphology and parent:prodrug composition. The method, then: “ND” in Table 2 refers to “No Data”. Purity was determined by HPLC. Melting point was determined by differential scanning calorimetry (“DSC”), and semi-quantitative hygroscopicity was determined in a relative humidity (“RH”) chamber.

Series [2] can be described thus: Kinetic solubility (iSol Explorer method). Conditions: system solution buffer (pION), aqueous buffer, kinetic from dmso stock. The format is physicochemical. The method, then:
Kinetic solubility was determined using the iSol Explorer method (pION Inc.; Woburn, Mass.). Certain Example Compounds were dissolved in dimethylsulfoxide (DMSO; >99.9% ACS spectrophotometric grade; Sigma-Aldrich, St. Louis, Mo.) to a concentration of 100 mM. The DMSO stock was diluted 1:100 in system solution buffer (pION Inc. Wobum Mass.) that had been adjusted to the desired pH (5.0, 6.8, and 7.4) with either HCl or NaOH. The diluted samples in the desired buffer were incubated for 15 minutes at room temperature and filtered using 96-well plate with 0.25 mm glass fiber/1.2 μm polyethersulfone filter bottoms (Corning, Inc.; Corning, N.Y.). The filtrate is transferred to a second 96-well plate and read on a SpectraMAX 190 (Molecular Devices; Sunnyvale, Calif.) scanning from 190 to 498 nm. The data are analyzed with Sol Explorer Command version 2.2, (pION Inc. Woburn, Mass.) and the concentration reported in molarity and/or mass per volume.

Series [3] can be described thus: Experiment 2: femoral vein samples of rats after IV Parent Compound A. It counts as in vivo, female Sprague Dawley rats. Conditions: for [Par. Cmp. A]: listed as Par. Cmp. A. The method, then: Experiment 2. Three female Sprague Dawley rats (215-250 g, Charles River Laboratories) with a catheter implanted surgically in the femoral vein for blood sampling were used in this study. Parent Compound A, solubilized in 3% DMA, 40% PEG300, 12% ethanol, and 45% water by volume, was administered IV at a dose of 2.5 mg/kg in a volume of 2 mL/kg. Femoral blood samples were collected from each animal at 0.083, 0.25, 0.5, 1, 2, 4, and 8 hours following administration of compound and processed for analysis of Parent Compound A concentration.
Pharmacokinetic parameters estimated for Parent Compound A included the maximum observed drug concentration (Cmax), time of maximum observed drug concentration (Tmax), apparent terminal half-life (t1/2), area under the concentration-time curve from time zero to 8 hours postdose (AUC(0-8)), and area under the concentration-time curve extrapolated to infinity (AUC(0-inf)). The bioavailability (% F) of Parent Compound A in portal vein samples relative to IV administration was also estimated.
Plasma samples were analyzed for Example Compound 35 or Parent Compound A concentration using a LC-MS/MS method. All sample runs met standard acceptance criteria for discovery purposes, and were based on a standard curve containing at least 7 points. At least half of quality control samples at each of the three concentrations tested, and two thirds of the entire quality control sample pool, were within 15% of their theoretical value. The r^2 value for each standard curve was ≧0.99. The quantitation range for the Example Compound 35 and Parent Compound A assays was 1 to 100 ng/mL and 5 to 2,500 ng/mL, respectively, using a 0.05 mL sample volume.
The data were entered into the PK software package WinNonlin® version 5.1.1. A complete data check was conducted to verify the accuracy of data entry.
Pharmacokinetic parameters were estimated on median plasma concentrations using extravascular input (PO). Nominal collection times after administration of compound were used for PK analyses. The use of a non-compartmental model provided an adequate fit of the data. Pharmacokinetic parameters estimated for Parent Compound A included the maximum observed drug concentration (Cmax), time of maximum observed drug concentration (Tmax), apparent terminal half-life (t1/2), apparent volume of distribution (Vz obs), apparent clearance (C1 obs), area under the concentration-time curve from time zero to 8 hours postdose of Example Compound 35 […], and area under the concentration-time curve extrapolated to infinity (AUC(0-inf)). Example Compound 35 was detected in only one 0.25 hour hepatic portal vein sample at 1.29 ng/mL. Any Example Compound 35 present in all of the other samples was below the quantitation limit of 1 ng/mL and pharmacokinetic parameters were not determined for those samples. The median PK parameters estimated for Parent Compound A following portal vein sampling of the oral dose of Example Compound 35 or following femoral vein sampling of the intravenous dose of Parent Compound A are given in the Table 5 below. Individual and median concentration of Parent Compound A and Example Compound 35 in hepatic portal vein following oral administration of Example Compound 35 (20 mg/kg) to rats pursuant to Experiment 1 are shown in Table 6 below. Individual and median plasma concentration of Parent Compound A in femoral vein following IV administration of Parent Compound A (2.5 mg/kg) to rats pursuant to Experiment 2 are shown in Table 7 below. FIG. 5 depicts median concentration of Parent Compound A and Example Compound 35 in hepatic portal vein of rats following a single oral dose of Example Compound 35 (20 mg/kg). FIG. 6 depicts median plasma concentration of Parent Compound A following a single IV dose of Parent Compound A (2.5 mg/kg) to rats. […]

The mark [4] stands for this setting: female, Sprague-Dawley, rat, plasma (femoral vein), Parent Cmpd. A 2.5 mg/kg IV, Femoral Vein, median.

Values joined by “and” are separate entries in the source; they are usually repeats but may differ in a detail not shown here. Equal entries are not always repeated. Where two headings read alike, the source gives them in different places.

For orientation: solubility means how much of the substance goes into solution per volume. A higher solubility goes with a readily soluble substance. What is called AUC(0-inf) is total exposure, with the tail of the curve extrapolated. Usually Cmax stands for the maximum level reached in the sampled fluid or tissue. A word on the Tmax: it is the time from dosing to the highest level. Broadly, the half-life is the time needed for the level to fall by half in the phase considered.

In the case of `O=C(NCc1ccc[n+](COC(=O)c2ccccc2)c1)Nc1ccc(OCCc2ccccc2-c2ccccc2)cc1` [Example 35, 1-[(Benzoyloxy)methyl]-3-{[({4-[2-(biphenyl-2-yl)ethoxy]phenyl}carbamoyl)amino]methyl} pyridinium], the “Stability at 40° C. and 75% RH” value in series [1] is on record as “No change in morphology stopped at 13 days, only prodrug observed”. In addition, in series [1], the “Stability at 60° C. and 75% RH” value is recorded as “Deliquesced at 7 days, approx 30:70 parent to prodrug observed”. Further, the solubility at 15 min in series [2] (pH 5.0, 15 minutes at room temperature) was found to be 402 µM; in series [2] (pH 6.8, 15 minutes at room temperature) it was 404 µM; in series [2] (pH 7.4, 15 minutes at room temperature) it was 433 µM.
As to `O=C(NCc1cccnc1)Nc1ccc(OCCc2ccccc2-c2ccccc2)cc1` [Parent Compound A, 1-{4-[2-(Biphenyl-2-yl)ethoxy]phenyl}-3-(pyridin-3-ylmethyl)urea], in series [3] (female, Sprague-Dawley, rat, plasma (femoral vein), iv, 2.5 mg/kg, femoral vein plasma, 0.083 hr after IV Parent Compound A 2.5 mg/kg, read-out: Median [Par. Cmp. A]), the concentration at 0.083 h is 1920 ng/mL. For the same molecule, the concentration at 0.25 h in series [3] (female, Sprague-Dawley, rat, plasma (femoral vein), iv, 2.5 mg/kg, femoral vein plasma, 0.25 hr after IV Parent Compound A 2.5 mg/kg, individual rats, read-out: [Par. Cmp. A]) was 1610 ng/mL; in series [3] (female, Sprague-Dawley, rat, plasma (femoral vein), iv, 2.5 mg/kg, femoral vein plasma, 0.25 hr after IV Parent Compound A 2.5 mg/kg, read-out: Median [Par. Cmp. A]), 1130 ng/mL. Further, the concentration at 0.5 h was determined as 568 ng/mL in series [3] (female, Sprague-Dawley, rat, plasma (femoral vein), iv, 2.5 mg/kg, femoral vein plasma, 0.5 hr after IV Parent Compound A 2.5 mg/kg, individual rats, read-out: [Par. Cmp. A]) and 720 ng/mL in series [3] (female, Sprague-Dawley, rat, plasma (femoral vein), iv, 2.5 mg/kg, femoral vein plasma, 0.5 hr after IV Parent Compound A 2.5 mg/kg, read-out: Median [Par. Cmp. A]). The concentration at 1 h worked out at 343 ng/mL in series [3] (female, Sprague-Dawley, rat, plasma (femoral vein), iv, 2.5 mg/kg, femoral vein plasma, 1 hr after IV Parent Compound A 2.5 mg/kg, individual rats, read-out: [Par. Cmp. A]) and 360 ng/mL in series [3] (female, Sprague-Dawley, rat, plasma (femoral vein), iv, 2.5 mg/kg, femoral vein plasma, 1 hr after IV Parent Compound A 2.5 mg/kg, read-out: Median [Par. Cmp. A]). Moreover, the concentration at 2 h in series [3] (female, Sprague-Dawley, rat, plasma (femoral vein), iv, 2.5 mg/kg, femoral vein plasma, 2 hr after IV Parent Compound A 2.5 mg/kg, individual rats, read-out: [Par. Cmp. A]) is 136 ng/mL; in series [3] (female, Sprague-Dawley, rat, plasma (femoral vein), iv, 2.5 mg/kg, femoral vein plasma, 2 hr after IV Parent Compound A 2.5 mg/kg, read-out: Median [Par. Cmp. A]), 177 ng/mL. Besides, in series [3] (female, Sprague-Dawley, rat, plasma (femoral vein), iv, 2.5 mg/kg, femoral vein plasma, 4 hr after IV Parent Compound A 2.5 mg/kg, read-out: Median [Par. Cmp. A]), the concentration at 4 h came to 26.2 ng/mL. For the same molecule, the concentration at 8 h in series [3] (female, Sprague-Dawley, rat, plasma (femoral vein), iv, 2.5 mg/kg, femoral vein plasma, 8 hr after IV Parent Compound A 2.5 mg/kg, individual rats, * = below the quantitation limit of 5 ng/mL, read-out: [Par. Cmp. A]) is 1.98 ng/mL; in series [3] (female, Sprague-Dawley, rat, plasma (femoral vein), iv, 2.5 mg/kg, femoral vein plasma, 8 hr after IV Parent Compound A 2.5 mg/kg, read-out: Median [Par. Cmp. A]), 2.1 ng/mL. The AUC(0-inf) in series [3] (setting [4]) is 1460 ng·h/mL. Moreover, the Cmax in series [3] (setting [4]) stood at 1920 ng/mL. For the same molecule, the Tmax in series [3] (setting [4]) was determined as 4.2 min. Further, the half-life in series [3] (setting [4]) was 60 min. In series [3] (female, Sprague-Dawley, rat, plasma (femoral vein), Parent Cmpd. A 2.5 mg/kg IV, Femoral Vein, median, read-out: AUC(0-8)), the AUC(0-t) worked out at 1460 ng·h/mL. Moreover, the “[Par. Cmp. A]” value in series [3] (femoral vein plasma, 0.083 hr after IV Parent Compound A 2.5 mg/kg, individual rats, 2.5 mg/kg) was 1,303.7 ng/mL and 2,660.1 ng/mL and 1,924.0 ng/mL; in series [3] (femoral vein plasma, 0.25 hr after IV Parent Compound A 2.5 mg/kg, individual rats, 2.5 mg/kg) it was 1,131.8 ng/mL and 878.3 ng/mL; in series [3] (femoral vein plasma, 0.5 hr after IV Parent Compound A 2.5 mg/kg, individual rats, 2.5 mg/kg), 1,062.6 ng/mL and 719.5 ng/mL; in series [3] (femoral vein plasma, 1 hr after IV Parent Compound A 2.5 mg/kg, individual rats, 2.5 mg/kg), 565.0 ng/mL and 360.4 ng/mL; in series [3] (femoral vein plasma, 2 hr after IV Parent Compound A 2.5 mg/kg, individual rats, 2.5 mg/kg), 268.6 ng/mL and 177.2 ng/mL; in series [3] (femoral vein plasma, 4 hr after IV Parent Compound A 2.5 mg/kg, individual rats, 2.5 mg/kg), 19.7 ng/mL and 39.7 ng/mL and 26.2 ng/mL. Besides, the “[Par. Cmp. A]” value in series [3] (femoral vein plasma, 8 hr after IV Parent Compound A 2.5 mg/kg, individual rats, * = below the quantitation limit of 5 ng/mL, 2.5 mg/kg) was 2.05* ng/mL and 2.81* ng/mL.
